Test [1] has as its target Mitogen-activated protein kinase kinase kinase 9 (Homo sapiens) (UniProt P80192). The test is described as follows: Binding affinity to wild-type human partial length MLK1 (V88 to W426 residues) expressed in bacterial expression system assessed as residual binding level at 1 uM by Kinomescan method relative to control.
The target in test [2] is G protein-coupled receptor kinase 4 (Homo sapiens) (UniProt P32298). The test is described as follows: Binding affinity to wild-type human full length GRK4 (M1 to C578 residues) expressed in bacterial expression system assessed as residual binding level at 1 uM by Kinomescan method relative to control.
Test [3] deals with Casein kinase I isoform gamma-2 (Homo sapiens) (UniProt P78368). Nature of the test: Binding affinity to wild-type human full length CSNK1G2 (M1 to K415 residues) expressed in bacterial expression system assessed as residual binding level at 1 uM by Kinomescan method relative to control.
In test [4] the target is Dual specificity testis-specific protein kinase 1 (Homo sapiens) (UniProt Q15569). Nature of the test: Binding affinity to wild-type human full length TESK1 (R37 to S626 residues) expressed in bacterial expression system assessed as residual binding level at 1 uM by Kinomescan method relative to control.
The target of test [5] is Bone morphogenetic protein receptor type-2 (Homo sapiens) (UniProt Q13873). The test is described as follows: Binding affinity to wild-type human partial length BMPR2 (R179 to Q526 residues) expressed in mammalian expression system assessed as residual binding level at 1 uM by Kinomescan method relative to control.
Sequence of Bone morphogenetic protein receptor type-2 (Homo sapiens) (Q13873 whole entry, the tested form may be a part): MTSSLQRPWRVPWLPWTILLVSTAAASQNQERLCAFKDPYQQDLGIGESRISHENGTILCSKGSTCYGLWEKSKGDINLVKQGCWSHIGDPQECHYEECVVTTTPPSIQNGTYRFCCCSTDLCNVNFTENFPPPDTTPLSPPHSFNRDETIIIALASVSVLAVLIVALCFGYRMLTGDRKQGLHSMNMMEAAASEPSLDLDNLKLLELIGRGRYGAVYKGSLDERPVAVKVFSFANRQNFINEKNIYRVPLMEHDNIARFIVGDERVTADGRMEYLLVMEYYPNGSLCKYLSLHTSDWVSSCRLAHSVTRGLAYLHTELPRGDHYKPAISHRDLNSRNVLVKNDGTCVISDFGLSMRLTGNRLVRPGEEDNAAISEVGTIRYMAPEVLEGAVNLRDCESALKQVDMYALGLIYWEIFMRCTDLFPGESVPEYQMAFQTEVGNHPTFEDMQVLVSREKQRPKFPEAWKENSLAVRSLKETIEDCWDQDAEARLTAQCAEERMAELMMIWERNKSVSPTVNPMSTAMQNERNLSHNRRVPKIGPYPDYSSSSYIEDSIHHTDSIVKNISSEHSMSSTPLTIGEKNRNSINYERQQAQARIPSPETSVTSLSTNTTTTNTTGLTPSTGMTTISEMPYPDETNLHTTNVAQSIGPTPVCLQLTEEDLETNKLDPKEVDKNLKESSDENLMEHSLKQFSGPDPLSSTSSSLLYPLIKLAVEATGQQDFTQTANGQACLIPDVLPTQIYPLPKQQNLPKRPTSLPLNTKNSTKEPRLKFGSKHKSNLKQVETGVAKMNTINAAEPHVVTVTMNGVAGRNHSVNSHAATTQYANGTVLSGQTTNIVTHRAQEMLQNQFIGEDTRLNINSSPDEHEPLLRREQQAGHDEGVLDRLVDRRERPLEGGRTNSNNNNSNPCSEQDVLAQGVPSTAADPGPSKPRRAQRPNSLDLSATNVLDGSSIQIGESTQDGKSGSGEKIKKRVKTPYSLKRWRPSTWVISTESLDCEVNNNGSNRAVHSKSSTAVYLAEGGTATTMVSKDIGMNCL
Test [6] has as its target Serine/threonine-protein kinase 38 (Homo sapiens) (UniProt Q15208). The test is described as follows: Binding affinity to wild-type human partial length NDR1 (N33 to E449 residues) expressed in mammalian expression system assessed as residual binding level at 1 uM by Kinomescan method relative to control.
The target of test [7] is Cyclin-dependent kinase 7 (Homo sapiens) (UniProt P50613). Nature of the test: Binding affinity to wild-type human full length CDK7 (M1 to L344 residues) expressed in mammalian expression system assessed as residual binding level at 1 uM by Kinomescan method relative to control.
The target of test [8] is Serine/threonine-protein kinase D1 (Homo sapiens) (UniProt Q15139). The test is described as follows: Binding affinity to wild-type human partial length PRKD1 (G551 to E870 residues) expressed in bacterial expression system assessed as residual binding level at 1 uM by Kinomescan method relative to control.
Test [9] has as its target Serine/threonine-protein kinase MRCK gamma (Homo sapiens) (UniProt Q6DT37). Nature of the test: Binding affinity to wild-type human partial length DMPK2 (S46 to S408 residues) expressed in bacterial expression system assessed as residual binding level at 1 uM by Kinomescan method relative to control.
Test [10] concerns the target Serine/threonine-protein kinase N1 (Homo sapiens) (UniProt Q16512). Nature of the test: Binding affinity to wild-type human partial length PKN1 (E598 to C948 residues) expressed in bacterial expression system assessed as residual binding level at 1 uM by Kinomescan method relative to control.
Test [11] has as its target Phosphatidylinositol 4-phosphate 3-kinase C2 domain-containing subunit beta (Homo sapiens) (UniProt O00750). The test is described as follows: Binding affinity to wild-type human partial length PIK3C2B (M1 to L1634 residues) expressed in mammalian expression system assessed as residual binding level at 1 uM by Kinomescan method relative to control.
In test [12] the target is Cyclin-dependent kinase-like 5 (Homo sapiens) (UniProt O76039). Nature of the test: Binding affinity to wild-type human partial length CDKL5 (M1 to S337 residues) expressed in mammalian expression system assessed as residual binding level at 1 uM by Kinomescan method relative to control.
Sequence of Cyclin-dependent kinase-like 5 (Homo sapiens) (O76039 whole entry, the tested form may be a part, canonical isoform): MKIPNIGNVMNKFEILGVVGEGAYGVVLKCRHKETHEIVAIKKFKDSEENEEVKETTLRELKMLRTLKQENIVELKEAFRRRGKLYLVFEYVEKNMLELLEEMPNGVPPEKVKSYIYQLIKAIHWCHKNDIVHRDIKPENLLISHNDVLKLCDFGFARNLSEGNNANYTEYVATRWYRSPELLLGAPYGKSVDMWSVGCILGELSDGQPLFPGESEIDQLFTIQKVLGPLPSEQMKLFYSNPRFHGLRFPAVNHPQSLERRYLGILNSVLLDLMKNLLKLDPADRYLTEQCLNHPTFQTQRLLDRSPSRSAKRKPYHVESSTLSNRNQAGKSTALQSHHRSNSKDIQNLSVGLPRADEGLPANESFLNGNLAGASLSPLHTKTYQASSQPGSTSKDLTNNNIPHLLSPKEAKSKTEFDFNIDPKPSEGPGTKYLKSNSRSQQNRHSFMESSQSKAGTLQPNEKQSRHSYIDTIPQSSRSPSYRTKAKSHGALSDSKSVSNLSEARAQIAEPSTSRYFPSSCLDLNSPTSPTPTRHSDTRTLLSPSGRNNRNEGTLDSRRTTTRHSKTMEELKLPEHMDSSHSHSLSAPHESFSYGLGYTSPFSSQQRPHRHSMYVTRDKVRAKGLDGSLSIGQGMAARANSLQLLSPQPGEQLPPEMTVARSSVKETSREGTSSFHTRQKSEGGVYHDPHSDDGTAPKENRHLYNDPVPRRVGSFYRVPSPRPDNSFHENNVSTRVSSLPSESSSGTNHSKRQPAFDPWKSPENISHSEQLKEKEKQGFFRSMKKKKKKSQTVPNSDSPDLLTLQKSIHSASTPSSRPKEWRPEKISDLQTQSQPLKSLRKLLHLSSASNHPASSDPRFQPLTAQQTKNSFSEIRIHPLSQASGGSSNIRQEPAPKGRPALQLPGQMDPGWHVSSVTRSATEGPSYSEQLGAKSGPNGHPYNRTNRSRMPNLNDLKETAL
The subject of test [13] is Phosphatidylinositol 4,5-bisphosphate 3-kinase catalytic subunit alpha isoform (Homo sapiens), P42336 [Q546K]. Nature of the test: Binding affinity to human partial length PIK3CA Q546K mutant (R108 to N1068 residues) expressed in mammalian expression system assessed as residual binding level at 1 uM by Kinomescan method relative to control.
For test [14], the target named is RAC-alpha serine/threonine-protein kinase (Homo sapiens) (UniProt P31749). The test is described as follows: Binding affinity to wild-type human partial length AKT1 expressed in bacterial expression system assessed as residual binding level at 1 uM by Kinomescan method relative to control.
Sequence of RAC-alpha serine/threonine-protein kinase (Homo sapiens) (P31749 whole entry, the tested form may be a part): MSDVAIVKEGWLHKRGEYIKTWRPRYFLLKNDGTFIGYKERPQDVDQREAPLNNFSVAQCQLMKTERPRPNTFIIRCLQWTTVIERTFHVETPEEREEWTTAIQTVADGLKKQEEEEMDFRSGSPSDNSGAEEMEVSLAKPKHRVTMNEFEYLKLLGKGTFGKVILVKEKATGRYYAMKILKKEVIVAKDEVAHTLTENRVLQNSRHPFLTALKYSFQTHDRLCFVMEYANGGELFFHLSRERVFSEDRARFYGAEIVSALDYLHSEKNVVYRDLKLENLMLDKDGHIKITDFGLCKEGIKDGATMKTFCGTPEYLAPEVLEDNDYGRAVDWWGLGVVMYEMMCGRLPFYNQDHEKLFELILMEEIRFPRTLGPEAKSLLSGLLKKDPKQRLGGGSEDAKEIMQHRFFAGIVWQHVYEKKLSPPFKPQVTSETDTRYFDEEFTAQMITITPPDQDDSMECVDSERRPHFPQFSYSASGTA
Test [15] concerns the target TRAF2 and NCK-interacting protein kinase (Homo sapiens) (UniProt Q9UKE5). Nature of the test: Binding affinity to wild-type human partial length TNIK (D4 to K311 residues) expressed in bacterial expression system assessed as residual binding level at 1 uM by Kinomescan method relative to control.
In test [16] the target is Serine/threonine-protein kinase B-raf (Homo sapiens) (UniProt P15056). The test is described as follows: Binding affinity to wild-type human partial length BRAF (S429 to E741 residues) expressed in mammalian expression system assessed as residual binding level at 1 uM by Kinomescan method relative to control.
Test [17] deals with Serine/threonine-protein kinase PAK 5 (Homo sapiens) (UniProt Q9P286). Nature of the test: Binding affinity to wild-type human partial length PAK7 (Y400 to H719 residues) expressed in bacterial expression system assessed as residual binding level at 1 uM by Kinomescan method relative to control.
In test [18] the target is Phosphatidylinositol 4,5-bisphosphate 3-kinase catalytic subunit alpha isoform (Homo sapiens) (UniProt P42336). Nature of the test: Binding affinity to wild-type human partial length PIK3CA (R108 to N1068 residues) expressed in mammalian expression system assessed as residual binding level at 1 uM by Kinomescan method relative to control.
Sequence of Phosphatidylinositol 4,5-bisphosphate 3-kinase catalytic subunit alpha isoform (Homo sapiens) (P42336 whole entry, the tested form may be a part, canonical isoform): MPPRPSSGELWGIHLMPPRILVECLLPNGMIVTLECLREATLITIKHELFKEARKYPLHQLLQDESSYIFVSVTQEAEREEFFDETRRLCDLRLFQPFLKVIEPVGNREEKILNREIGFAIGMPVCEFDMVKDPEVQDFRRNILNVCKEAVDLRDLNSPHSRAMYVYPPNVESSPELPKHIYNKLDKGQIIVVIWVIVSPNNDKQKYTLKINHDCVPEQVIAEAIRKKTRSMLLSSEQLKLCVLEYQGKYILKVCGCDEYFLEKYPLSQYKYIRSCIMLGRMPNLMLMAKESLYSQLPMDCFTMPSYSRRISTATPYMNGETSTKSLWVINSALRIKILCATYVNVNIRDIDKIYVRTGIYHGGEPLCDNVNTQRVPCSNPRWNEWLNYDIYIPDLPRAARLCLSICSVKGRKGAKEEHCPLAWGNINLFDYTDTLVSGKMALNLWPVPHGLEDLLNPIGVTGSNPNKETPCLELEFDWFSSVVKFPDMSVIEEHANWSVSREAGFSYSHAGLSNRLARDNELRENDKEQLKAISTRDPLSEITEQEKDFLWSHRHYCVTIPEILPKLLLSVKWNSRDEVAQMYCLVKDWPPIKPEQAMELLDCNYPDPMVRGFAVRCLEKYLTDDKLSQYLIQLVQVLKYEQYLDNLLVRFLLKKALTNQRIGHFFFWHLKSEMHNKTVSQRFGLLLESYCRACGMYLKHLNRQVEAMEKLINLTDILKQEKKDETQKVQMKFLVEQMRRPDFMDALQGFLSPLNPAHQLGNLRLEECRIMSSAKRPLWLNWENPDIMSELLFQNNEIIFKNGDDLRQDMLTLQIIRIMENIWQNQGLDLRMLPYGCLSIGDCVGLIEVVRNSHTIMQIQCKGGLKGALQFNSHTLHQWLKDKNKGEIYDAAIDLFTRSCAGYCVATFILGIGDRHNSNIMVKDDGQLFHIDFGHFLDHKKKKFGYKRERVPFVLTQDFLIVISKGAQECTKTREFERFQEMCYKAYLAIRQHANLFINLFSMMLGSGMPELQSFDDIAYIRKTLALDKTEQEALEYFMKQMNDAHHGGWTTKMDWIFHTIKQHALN
For test [19], the target named is Cyclin-dependent kinase 11A (Homo sapiens) (UniProt Q9UQ88). Nature of the test: Binding affinity to wild-type human partial length CDC2L2 (D391 to K730 residues) expressed in bacterial expression system assessed as residual binding level at 1 uM by Kinomescan method relative to control.
The target in test [20] is Ribosomal protein S6 kinase alpha-3 (Homo sapiens) (UniProt P51812). Nature of the test: Binding affinity to wild-type human partial length N-terminal RSK2 kinase domain 1 (M1 to D394 residues) expressed in mammalian expression system assessed as residual binding level at 1 uM by Kinomescan method relative to control.
Sequence of Ribosomal protein S6 kinase alpha-3 (Homo sapiens) (P51812 whole entry, the tested form may be a part): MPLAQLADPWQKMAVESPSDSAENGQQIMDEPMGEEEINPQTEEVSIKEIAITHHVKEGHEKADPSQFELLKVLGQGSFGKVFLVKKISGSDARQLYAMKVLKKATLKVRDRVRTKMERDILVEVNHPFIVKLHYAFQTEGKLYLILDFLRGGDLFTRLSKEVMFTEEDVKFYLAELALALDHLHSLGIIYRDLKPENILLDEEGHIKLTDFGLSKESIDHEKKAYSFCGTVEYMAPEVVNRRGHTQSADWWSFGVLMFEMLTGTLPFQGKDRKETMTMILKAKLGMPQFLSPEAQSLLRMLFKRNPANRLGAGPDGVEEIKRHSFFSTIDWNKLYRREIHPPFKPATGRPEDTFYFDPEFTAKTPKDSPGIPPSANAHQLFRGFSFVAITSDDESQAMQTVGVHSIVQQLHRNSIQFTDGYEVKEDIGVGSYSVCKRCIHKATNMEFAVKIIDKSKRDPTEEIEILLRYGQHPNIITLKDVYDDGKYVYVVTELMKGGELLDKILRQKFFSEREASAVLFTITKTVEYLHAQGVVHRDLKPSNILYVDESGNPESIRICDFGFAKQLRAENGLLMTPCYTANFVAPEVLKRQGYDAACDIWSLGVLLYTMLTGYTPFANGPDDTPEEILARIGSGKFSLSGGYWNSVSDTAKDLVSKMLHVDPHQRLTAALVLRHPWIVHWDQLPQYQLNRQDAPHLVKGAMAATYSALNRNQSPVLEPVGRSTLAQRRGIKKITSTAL
In test [21] the test system is Tyrosine-protein kinase ABL1 (Homo sapiens), P00519 [T315I]. Nature of the test: Binding affinity to human non-phosphorylated ABL1 T315I mutant (S229 to K512 residues) expressed in mammalian expression system assessed as residual binding level at 1 uM by Kinomescan method relative to control.
In test [22] the target is Cyclin-dependent kinase 2 homolog (Plasmodium falciparum (isolate 3D7)) (UniProt P61075). Nature of the test: Binding affinity to wild-type Plasmodium falciparum full length PK5 (M1 to N288 residues) expressed in mammalian expression system assessed as residual binding level at 1 uM by Kinomescan method relative to control.
For test [23], the target named is Ankyrin repeat and protein kinase domain-containing protein 1 (Homo sapiens) (UniProt Q8NFD2). Nature of the test: Binding affinity to wild-type human partial length ANKK1 (M1 to A305 residues) expressed in mammalian expression system assessed as residual binding level at 1 uM by Kinomescan method relative to control.
In test [24] the target is Serine/threonine-protein kinase BRSK2 (Homo sapiens) (UniProt Q8IWQ3). The test is described as follows: Binding affinity to wild-type human full length BRSK2 (M1 to L674 residues) expressed in bacterial expression system assessed as residual binding level at 1 uM by Kinomescan method relative to control.

SMILES strings stand for the structures.

Sequence of Phosphatidylinositol 4,5-bisphosphate 3-kinase catalytic subunit alpha isoform (Homo sapiens), P42336 [Q546K] (P42336 whole entry Q546K, the tested form may be a part, canonical isoform): as the sequence (P42336 whole entry, the tested form may be a part, canonical isoform) above, with Q546K counted along it
Sequence of Serine/threonine-protein kinase 38 (Homo sapiens) (Q15208 2-465 limits assumed): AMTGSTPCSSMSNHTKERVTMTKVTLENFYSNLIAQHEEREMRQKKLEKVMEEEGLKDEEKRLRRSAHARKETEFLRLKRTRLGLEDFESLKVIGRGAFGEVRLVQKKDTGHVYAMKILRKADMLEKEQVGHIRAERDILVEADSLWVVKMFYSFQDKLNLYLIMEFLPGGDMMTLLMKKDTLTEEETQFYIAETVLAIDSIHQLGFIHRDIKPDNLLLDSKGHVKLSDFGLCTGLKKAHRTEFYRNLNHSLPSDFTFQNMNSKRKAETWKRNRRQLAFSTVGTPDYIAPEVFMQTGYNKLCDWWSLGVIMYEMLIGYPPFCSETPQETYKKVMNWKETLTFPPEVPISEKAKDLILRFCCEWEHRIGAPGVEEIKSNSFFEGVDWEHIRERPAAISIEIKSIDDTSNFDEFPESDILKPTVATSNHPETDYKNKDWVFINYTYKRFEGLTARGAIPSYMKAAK

`CC(C)Nc1sc(C(=O)c2ccc(Cl)s2)c(N)c1C#N`: the Activity in test [1] stood at 98%; in [2], 74%; in test [3] it was 74%; in [4], 94%; in test [5], 99%; in test [6], 74%. Also, the Activity in test [7] turned out to be 100%; in test [8], 97%; in test [9], 100%; in test [10], 56%; in [11], 100%; in [12] it was 100%. Moreover, the Activity is 100% in test [13]; 84% in test [14]; 62% in test [15]; 89% in [16]; 81% in test [17]; 100% in test [18]. For the same compound, the Activity came out at 100% in test [19]; 99% in test [20]; 100% in test [21]; 94% in test [22]; 68% in [23]; 58% in test [24].

Source of the values: ChEMBL document CHEMBL4330132, “5-Keto-3-cyano-2,4-diaminothiophenes as selective maternal embryonic leucine zipper kinase inhibitors” (Bioorg Med Chem Lett, 2019).
